We go through two molecules from patent US12258355B2, “Probes for imaging huntingtin protein” (CHDI Foundation, Inc., priority 2014, dated 2025).

Series [1] has as its system recombinant tau and amyloid β1-42 (Aβ1-42) aggregates. The settings on record: affinity for tau aggregates versus Aβ1-42 aggregates; cited from earlier work.
The test system of series [2] is zQ175 knock-in mice (WT, heterozygous, homozygous). In words: In vivo PET imaging in zQ175 knock-in mouse model of Huntington's disease. To be noted: for Average % SUV: i.v., 63-minute PET scan, Mean ± SD. As to the method: In Vivo Imaging with [^11C]-Compound 3 of Method 14 (5-[(5-[^11C-]-Methoxypyridin-2-yl)methoxy]-2-(pyridin-3-yl)-1,3-benzoxazole)) in a Knock-In Model of Huntington's Disease
^11C-labeled Compound 3 of Method 14 was evaluated for its ability to penetrate the central nervous system of mice following systemic administration, and its binding to the cerebellum, striatum, hippocampus, and cortex was quantitated. Three groups of animals were compared: wild-type, and mice that were heterozygous or homozygous for the zQ175 knock-in allele. (Menalled L. B. et al. Comprehensive behavioral and molecular characterization of a new knock-in mouse model of Huntington's disease: zQ175. PLoS One 2012, 7, e49838).
Forty-eight nine months old animals (16 WT, 16 heterozygous and 16 homozygous zQ175) were obtained from The Jackson Laboratory, USA. The animals were housed at the animal department of Karolinska University Hospital in a temperature (±21° C.) and humidity (±40%) controlled environment on a 12 h light/dark cycle (lights on 7:00 AM) with access to food and water ad libitum. Animals were allowed at least one week to habituate to the animal department before the start of the imaging sessions. All experiments were conducted during the light phase of the cycle.
Animals were anesthetized with inhalation of isoflurane (4-5% isoflurane in 100% oxygen). After induction of anesthesia, the isoflurane concentration was lowered to 1.5-2% (50/50 air/oxygen) and the animals were positioned in the scanner in a designated mouse bed. A cannula was inserted in the tail vein through which the radioligand was administered. A 63-minute dynamic PET scan was initiated immediately upon intravenous injection of the radioligand. Upon completion of the imaging sessions, each animal was returned to its cage.
Image and Statistical Analysis
The acquired list mode data, was reconstructed into 25 timeframes (63 min scan=4×10 s, 4×20 s, 4×60 s, 7×180 s, 6×360 s). The image reconstruction was made with a fully 3-dimensional maximum-likelihood expectation maximization algorithm (MLEM) with 20 iterations, without scatter and attenuation correction. The reconstructed dynamic PET images were co-registered to an inbuilt mouse MRI template available in PMOD, which also incorporates volumes of interest (VOI's) sets (PMOD Technologies Ltd., Zurich, Switzerland). With the help of these VOI sets, decay corrected time activity curves (TAC) were generated. The regional brain uptake values were expressed as percent standard uptake value (% SUV), which normalizes for injected radioactivity and body weight. In addition, the area under the curve (AUC) was calculated. The selected regions of interest (ROI) were: cortex, hippocampus, striatum and cerebellum.

For the molecule `CN(C)c1ccc(/C=C/c2nc3ccc(I)cc3[nH]2)cc1` [SBIM-3, 4-[(E)-2-(6-iodo-1H-benzimidazol-2-yl)ethenyl]-N,N-dimethylaniline], the “ratio of Kd values” in series [1] was 2.73.
Take `[11CH3]Oc1ccc(COc2ccc3oc(-c4cccnc4)nc3c2)nc1` [^11C-labeled Compound 3 of Method 14, 5-[(5-[^11C-]-Methoxypyridin-2-yl)methoxy]-2-(pyridin-3-yl)-1,3-benzoxazole]: the “binding of the radioligand relative to wild type” value in series [2] (all four brain regions, mice homozygous for the zQ175 allele) was “Increased binding”. For the same molecule, the “Average % SUV” value in series [2] (cerebellum, WT mice (n = 7)) is 74.2 ± 3.0 % SUV; in series [2] (cerebellum, het zQ175 mice (n = 7)), 78.4 ± 5.9 % SUV; in series [2] (cerebellum, hom zQ175 mice (n = 6)), 88.2 ± 5.0 % SUV; in series [2] (cortex, WT mice (n = 7)), 69.1 ± 3.1 % SUV; in series [2] (cortex, het zQ175 mice (n = 7)), 75.1 ± 4.3 % SUV; in series [2] (cortex, hom zQ175 mice (n = 6)) it was 93.9 ± 8.0 % SUV. Also, the “Average % SUV” value is given as 72.0 ± 3.6 % SUV in series [2] (hippocampus, WT mice (n = 7)); 80.3 ± 5.5 % SUV in series [2] (hippocampus, het zQ175 mice (n = 7)); 104.6 ± 7.9 % SUV in series [2] (hippocampus, hom zQ175 mice (n = 6)); 68.8 ± 2.7 % SUV in series [2] (striatum, WT mice (n = 7)); 79.7 ± 5.8 % SUV in series [2] (striatum, het zQ175 mice (n = 7)); 104.4 ± 9.1 % SUV in series [2] (striatum, hom zQ175 mice (n = 6)).
